Experiment: Side effects on the skin or subcutaneous tissue in test of intravenous administration of compound A composition to healthy subjects
Assay type: in vivo, human
Settings: for Erythema (number of subjects) / Hyperhidrosis (number of subjects) / Number of subjects who showed at least one symptom / Pruritus (number of subjects): N=6 healthy adult males, within 24 hours after initiation of administration
Description: Water for injection (5 mL) was added to each of the obtained 0 mg formulation and 25 mg formulation to dissolve the freeze-dried compositions (freeze-dried cakes), thus obtaining aqueous solutions for injection. When the 25 mg formulation was dissolved in 5 mL of water for injection, 5.21 mL of the aqueous solution composition (25 mg formulation (aqueous solution for injection)) shown in Table 1 comprising 5 mg/mL of the active ingredient (compound A) was reconstituted. Further, according to the compositions shown in Table 3 below, administration solutions were prepared by mixing the 25 mg formulation (aqueous solution for injection), the 0 mg formulation (aqueous solution for injection), and a physiological saline (physiological saline solution).
Each of the obtained administration solutions was intravenously administered with a syringe pump over the administration times shown in Table 3. The number of subjects to which each solution was administered was 6 healthy adult males (aged 20 to 40 years old) (N=6).
The number of subjects who developed, within 24 hours after the initiation of administration, side effects that could appear on the skin or subcutaneous tissue (erythema, hyperhidrosis, or pruritus) was recorded.

[1] = administration solution 1, 15 mg compound A i.v. over 2 hours
[2] = administration solution 2, 7.5 mg compound A i.v. over 2 hours
[3] = administration solution 3, 15 mg compound A i.v. over 5 minutes
[4] = administration solution 4, 7.5 mg compound A i.v. over 5 minutes
[5] = administration solution 5, 15 mg compound A i.v. over 1 minute
[6] = administration solution 6, 7.5 mg compound A i.v. over 1 minute

## Cc1ccccc1C(=O)Nc1ccc(C(=O)N2CCCC(OP(=O)([O-])[O-])c3cc(Cl)ccc32)c(C)c1.[Na+].[Na+] (centres unmarked) [compound A]
7.5 mg or 15 mg of compound A intravenously administered over a period of 1 minute or 5 minutes (administration solutions 3 to 6)
  erythema, hyperhidrosis, or pruritus: frequently observed
7.5 mg or 15 mg of compound A slowly administered over a period of 2 hours (administration solutions 1 and 2)
  side effects that could appear on the skin or subcutaneous tissue, such as erythema, hyperhidrosis, or pruritus: no side effects
[1]
  Erythema (number of subjects): 0 human
  Hyperhidrosis (number of subjects): 0 human
  Number of subjects who showed at least one symptom: 0 human
  Pruritus (number of subjects): 0 human
[2]
  Erythema (number of subjects): 0 human
  Hyperhidrosis (number of subjects): 0 human
  Number of subjects who showed at least one symptom: 0 human
  Pruritus (number of subjects): 0 human
[3]
  Erythema (number of subjects): 4 human
  Hyperhidrosis (number of subjects): 2 human
  Number of subjects who showed at least one symptom: 5 human
  Pruritus (number of subjects): 4 human
[4]
  Erythema (number of subjects): 3 human
  Hyperhidrosis (number of subjects): 2 human
  Number of subjects who showed at least one symptom: 4 human
  Pruritus (number of subjects): 3 human
[5]
  Erythema (number of subjects): 5 human
  Hyperhidrosis (number of subjects): 2 human
  Number of subjects who showed at least one symptom: 5 human
  Pruritus (number of subjects): 4 human
[6]
  Erythema (number of subjects): 5 human
  Hyperhidrosis (number of subjects): 0 human
  Number of subjects who showed at least one symptom: 5 human
  Pruritus (number of subjects): 4 human
